One block for each compound: values may come before it.
Experiments:
[1] = biological target: T1, human MT2 melatonin receptor (Homo sapiens, UniProt P49286); test: Radioligand binding assay at human MT2 (MDS Pharma Services), 2-[125I]iodomelatonin; details: for IC50 / Ki / nH (Hill coefficient): MT2; for inhibition at 50 pM: MT2, concentration 0.05 nM; for inhibition at 0.001 µM: MT2, concentration 1 nM; for inhibition at 1 µM: MT2, concentration 1 µM
T1 construct: expressed in transfected cells; host or cells: CHO (Chinese hamster ovary) cells, stably transfected
T1 sequence (P49286 1-362): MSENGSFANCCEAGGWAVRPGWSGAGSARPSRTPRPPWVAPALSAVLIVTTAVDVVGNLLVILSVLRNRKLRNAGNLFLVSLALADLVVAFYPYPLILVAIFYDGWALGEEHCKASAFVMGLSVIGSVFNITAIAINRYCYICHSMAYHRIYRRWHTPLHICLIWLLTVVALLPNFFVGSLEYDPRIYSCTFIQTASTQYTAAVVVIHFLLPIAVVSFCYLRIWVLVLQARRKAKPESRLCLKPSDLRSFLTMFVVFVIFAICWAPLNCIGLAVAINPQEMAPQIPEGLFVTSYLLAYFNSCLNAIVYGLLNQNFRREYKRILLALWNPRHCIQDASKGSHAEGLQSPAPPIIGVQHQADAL
Method: The newly synthesized indole derivatives were evaluated for their binding affinity and intrinsic activity at human MT1 and MT2 receptors stably transfected in Chinese hamster ovary (CHO) cells using 2-[^125I]iodomelatonin as a radioligand, and the results are shown in Table 5 and Table 6.

[2] = biological target: T2, human MT1 melatonin receptor (Homo sapiens, UniProt P48039); test: Radioligand binding assay at human MT1 (MDS Pharma Services), 2-[125I]iodomelatonin; details: for inhibition at 50 pM: MT1, concentration 0.05 nM; for inhibition at 0.001 µM: MT1, concentration 1 nM; for inhibition at 1 µM: MT1, concentration 1 µM
T2 construct: expressed in transfected cells; host or cells: CHO (Chinese hamster ovary) cells, stably transfected

human MT1 receptors [3] = biological target: T3, human MT1 receptors (Homo sapiens, UniProt P48039); test: Binding affinity at human MT1 receptors stably transfected in CHO cells, 2-[125I]iodomelatonin; details: read-out: MT1 pKi (Mean ± SD) (converted)
T3 construct: expressed in transfected cells; host or cells: CHO (Chinese hamster ovary) cells, stably transfected

human MT2 receptors [4] = biological target: T4, human MT2 receptors (Homo sapiens, UniProt P49286); test: Binding affinity at human MT2 receptors stably transfected in CHO cells, 2-[125I]iodomelatonin; details: read-out: MT2 pKi (Mean ± SD) (converted)
T4 construct: expressed in transfected cells; host or cells: CHO (Chinese hamster ovary) cells, stably transfected
T4 sequence (P49286 1-362): T1 sequence (P49286 1-362)

human MT1 receptors [5] = biological target: T3, human MT1 receptors; test: Intrinsic activity at human MT1 receptors stably transfected in CHO cells; assay type: biochemical; details: MT1, melatonin = 1.00
human MT2 receptors [6] = biological target: T4, human MT2 receptors; test: Intrinsic activity at human MT2 receptors stably transfected in CHO cells; assay type: biochemical; details: MT2, melatonin = 1.00
[7] = Oxidation of 2,3-dihydroindoles in solution (NMR tube, storage in DMSO solution); assay type: physicochemical
From the text: Despite stability in the solid phase, the obtained 2,3-dihydroindoles are sensitive to oxidation in solution. Thus, the oxidation in the NMR tube occurred both in spiro and 3H-containing indolines, but led to different types of products. […] The compounds 8i,l,g were also partially converted to aromatic indoles 9i,l,g during purification by column chromatography.
[formula] Scheme 10 Oxidative conversion of 2,3-dihydroindoles during storage in DMSO solution.

T2 sequence (P48039 whole entry): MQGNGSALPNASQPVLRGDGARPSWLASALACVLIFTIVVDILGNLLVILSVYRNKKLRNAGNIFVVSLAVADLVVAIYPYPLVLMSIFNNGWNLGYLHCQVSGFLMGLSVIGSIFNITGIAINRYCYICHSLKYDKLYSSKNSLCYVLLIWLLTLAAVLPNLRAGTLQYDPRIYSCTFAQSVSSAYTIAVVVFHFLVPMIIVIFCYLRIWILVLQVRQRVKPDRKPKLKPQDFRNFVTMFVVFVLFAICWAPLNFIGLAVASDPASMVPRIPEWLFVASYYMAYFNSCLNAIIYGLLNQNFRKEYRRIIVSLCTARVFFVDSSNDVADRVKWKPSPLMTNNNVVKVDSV
T3 sequence (P48039 whole entry): as above

Ki (human MT1 receptors [3]): 112 nM
Ki (human MT2 receptors [4]): 46.8 nM
MT1 Intrinsic Activity (human MT1 receptors [5]): 0.63 ± 0.14
MT2 Intrinsic Activity (human MT2 receptors [6]): 0.61 ± 0.03
SMILES: COc1ccc2c(c1)C(C)(CCNC(C)=O)CN2Cc1ccccc1 (stereo not drawn) [8f, N-[2-(1-Benzyl-3-methyl-5-methoxy-2,3-dihydro-1H-indol-3-yl)ethyl]acetamide]

Ki (human MT1 receptors [3]): 5.25 nM
Ki (human MT2 receptors [4]): 2.29 nM
MT1 Intrinsic Activity (human MT1 receptors [5]): 1.04 ± 0.14
MT2 Intrinsic Activity (human MT2 receptors [6]): 0.85 ± 0.08
SMILES: COc1ccc2c(c1)C(CCNC(C)=O)CN2Cc1ccccc1 (stereo not drawn) [8h, N-[2-(1-Benzyl-5-methoxy-2,3-dihydro-1H-indol-3-yl)ethyl]acetamide]

Ki (human MT1 receptors [3]): 251 nM
Ki (human MT2 receptors [4]): 166 nM
MT1 Intrinsic Activity (human MT1 receptors [5]): 0.61 ± 0.15
MT2 Intrinsic Activity (human MT2 receptors [6]): 0.83 ± 0.05
SMILES: CC(=O)NCCC1CN(C)c2c1ccc(C)c2C (stereo not drawn) [8l, N-[2-(1,6,7-Trimethyl −2,3-dihydro-1H-indol-3-yl)ethyl]acetamide]

Stability to oxidation in solution [7]: oxidized to 2-oxindole
SMILES: CC(=O)NCC1CC12CN(C)c1ccccc12 (stereo not drawn) [10a, N-{1′-Methyl-1′,2′-dihydrospiro[cyclopropan-1,3′-indol]-3-ylmethyl}acetamide]

nH (Hill coefficient) ([2]; MT1): 0.774
MT1 Intrinsic Activity (human MT1 receptors [5]): 1.00 ± 0.03
SMILES: COc1ccc2[nH]cc(CCNC(C)=O)c2c1 [Melatonin, 3-(2-(acetylamino)ethyl)-5-methoxyindole, reference compound]

Second part, the compound before the results:

SMILES: CCC(=O)NC1Cc2ccccc2C(c2ccccc2)C1 (stereo not drawn) [4-P-PDOT, reference compound]
IC50 [1]: 0.497 nM
Ki [1]: 0.258 nM
nH (Hill coefficient) [1]: 0.840

SMILES: COc1ccc2c(c1)C(CCNC(C)=O)C(=O)N2 (stereo not drawn) [7a, N-[2-(5-methoxy-2-oxo-2,3-dihydro-1H-indol-3-yl)ethyl]acetamide]
IC50 ([2]; MT1): > 1000 nM
inhibition at 50 pM [2]: 4%
inhibition at 0.001 µM [2]: 3%
inhibition at 1 µM [2]: 46%
IC50 [1]: 268 nM
Ki [1]: 139 nM
nH (Hill coefficient) [1]: 0.676
inhibition at 50 pM [1]: 4%
inhibition at 0.001 µM [1]: 3%
inhibition at 1 µM [1]: 71%

SMILES: COc1ccc2[nH]c(Cl)c(CCNC(C)=O)c2c1 [7d, 2-chloromelatonin]
IC50 ([2]; MT1): 0.138 nM
Ki ([2]; MT1): 0.0716 nM
nH (Hill coefficient) ([2]; MT1): 0.925
inhibition at 50 pM [2]: 28%
inhibition at 0.001 µM [2]: 86%
inhibition at 1 µM [2]: 100%
MT1 receptor binding activity compared with melatonin ([2]; MT1, in words): more active than melatonin
IC50 [1]: 0.338 nM
Ki [1]: 0.176 nM
nH (Hill coefficient) [1]: 1.01
inhibition at 50 pM [1]: 13%
inhibition at 0.001 µM [1]: 75%
inhibition at 1 µM [1]: 98%

SMILES: CC(=O)NCCC1(C)CN(C)c2ccccc21 (stereo not drawn) [8a, N-[2-(1,3-Dimethyl-2,3-dihydro-1H-indol-3-yl)ethyl]acetamide]
Ki (human MT1 receptors [3]): 776 nM
Ki (human MT2 receptors [4]): 427 nM
MT1 Intrinsic Activity (human MT1 receptors [5]): 0.47 ± 0.10
MT2 Intrinsic Activity (human MT2 receptors [6]): 0.74 ± 0.07

SMILES: CC(=O)NCCC1(C)CN(Cc2ccccc2)c2ccccc21 (stereo not drawn) [8b, N-[2-(1-Benzyl-3-methyl-2,3-dihydro-1H-indol-3-yl)ethyl]acetamide]
Ki (human MT1 receptors [3]): 1740 nM
Ki (human MT2 receptors [4]): 72.4 nM
MT1 Intrinsic Activity (human MT1 receptors [5]): 0.33 ± 0.04
MT2 Intrinsic Activity (human MT2 receptors [6]): 0.45 ± 0.04

SMILES: COc1ccc2c(c1)C(C)(CCNC(C)=O)CN2C (stereo not drawn) [8e, N-[2-(1,3-Dimethyl-5-methoxy-2,3-dihydro-1H-indol-3-yl)ethyl]acetamide]
Ki (human MT1 receptors [3]): 58.9 nM
Ki (human MT2 receptors [4]): 195 nM
MT1 Intrinsic Activity (human MT1 receptors [5]): 0.94 ± 0.10
MT2 Intrinsic Activity (human MT2 receptors [6]): 0.96 ± 0.07

SMILES: CC(=O)NCCC1CN(Cc2ccccc2)c2ccccc21 (stereo not drawn) [8m, N-[2-(1-Benzyl-2,3-dihydro-1H-indol-3-yl)ethyl]acetamide]
Stability to oxidation in solution [7]: aromatization of the indole ring occurred

Reference: publication PMC9655341 (Molecules, 2022)
